Measurements taken from ChEMBL document CHEMBL5036306 (J Med Chem, 2021).
The source made the active and inactive calls. No cut-off for these calls is given here.

How the values were obtained:
[1] = Antioxidant activity assessed as DPPH radical scavenging activity incubated for 30 mins under dark condition by microplate reader based assay; assay type: functional
[2] = Metal chelating activity compound-Zn2+ complex formation at 10 to 200 uM preincubated for 2 mins followed by di-thizone addition by microplate reader based assay; conditions: dose 10-200 µM
N9 [3] = test: Immunomodulatory activity in LPS-induced mouse N9 microglial cells assessed as increase in TGF-beta2 expression at 0.1 to 5 uM incubated for 24 hrs by Western blot analysis; assay type: functional; conditions: dose 0.1-5 µM
Histone deacetylase 8 = biological target: T1, Histone deacetylase 8 (Homo sapiens, UniProt Q9BY41); test: Inhibition of recombinant HDAC8 (unknown origin) using Boc-Lys(trifluoroacetyl)-AMC as substrate pre-incubated for 1 hr followed by substrate addition and measured after 2 hrs by fluorescence based assay
T1 sequence (Q9BY41 whole entry): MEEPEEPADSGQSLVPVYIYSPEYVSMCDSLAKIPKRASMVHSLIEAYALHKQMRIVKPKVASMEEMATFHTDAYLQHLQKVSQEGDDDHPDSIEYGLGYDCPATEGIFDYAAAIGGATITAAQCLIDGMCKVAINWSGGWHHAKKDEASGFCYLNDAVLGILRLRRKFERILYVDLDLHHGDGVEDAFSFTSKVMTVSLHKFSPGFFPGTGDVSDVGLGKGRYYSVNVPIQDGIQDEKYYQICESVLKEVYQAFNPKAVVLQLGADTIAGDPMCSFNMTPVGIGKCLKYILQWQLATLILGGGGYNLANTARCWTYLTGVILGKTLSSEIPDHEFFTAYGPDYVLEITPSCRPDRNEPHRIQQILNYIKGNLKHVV

Histone deacetylase 7 = biological target: T2, Histone deacetylase 7 (Homo sapiens, UniProt Q8WUI4); test: Inhibition of recombinant HDAC7 (unknown origin) using Boc-Lys(trifluoroacetyl)-AMC as substrate pre-incubated for 1 hr followed by substrate addition and measured after 2 hrs by fluorescence based assay
T2 sequence (Q8WUI4 whole entry): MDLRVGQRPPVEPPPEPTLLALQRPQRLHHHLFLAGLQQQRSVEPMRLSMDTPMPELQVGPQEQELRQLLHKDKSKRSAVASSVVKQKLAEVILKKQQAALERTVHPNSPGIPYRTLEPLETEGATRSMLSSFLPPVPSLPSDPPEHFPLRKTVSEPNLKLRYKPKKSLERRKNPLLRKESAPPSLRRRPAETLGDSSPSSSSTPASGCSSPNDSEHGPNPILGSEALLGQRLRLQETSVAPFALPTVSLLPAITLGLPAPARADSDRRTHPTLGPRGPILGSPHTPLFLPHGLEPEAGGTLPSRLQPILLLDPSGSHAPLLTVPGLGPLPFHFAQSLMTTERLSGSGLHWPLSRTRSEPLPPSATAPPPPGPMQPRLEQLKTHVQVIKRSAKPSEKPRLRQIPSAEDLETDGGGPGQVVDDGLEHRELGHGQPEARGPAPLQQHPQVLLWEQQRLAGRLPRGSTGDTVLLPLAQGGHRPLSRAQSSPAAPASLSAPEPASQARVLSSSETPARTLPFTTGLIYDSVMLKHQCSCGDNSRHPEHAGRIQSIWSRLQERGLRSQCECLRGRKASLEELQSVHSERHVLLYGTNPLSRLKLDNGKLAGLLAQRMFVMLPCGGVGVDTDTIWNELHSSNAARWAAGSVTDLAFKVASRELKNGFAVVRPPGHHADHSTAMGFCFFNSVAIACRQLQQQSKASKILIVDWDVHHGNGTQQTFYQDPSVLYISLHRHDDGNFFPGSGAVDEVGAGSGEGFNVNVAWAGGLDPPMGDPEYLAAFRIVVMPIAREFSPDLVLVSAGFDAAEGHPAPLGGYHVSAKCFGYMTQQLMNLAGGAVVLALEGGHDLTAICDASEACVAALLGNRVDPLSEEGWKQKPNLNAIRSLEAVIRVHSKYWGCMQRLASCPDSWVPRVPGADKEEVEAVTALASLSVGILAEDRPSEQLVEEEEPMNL

Histone deacetylase 2 = Histone deacetylase 2 (Homo sapiens, UniProt Q92769); test: Inhibition of recombinant HDAC2 (unknown origin) using Boc-Lys(Ac)-AMC as substrate pre-incubated for 1 hr followed by substrate addition and measured after 2 hrs by fluorescence based assay
Sequence of Histone deacetylase 2 (Q92769 whole entry): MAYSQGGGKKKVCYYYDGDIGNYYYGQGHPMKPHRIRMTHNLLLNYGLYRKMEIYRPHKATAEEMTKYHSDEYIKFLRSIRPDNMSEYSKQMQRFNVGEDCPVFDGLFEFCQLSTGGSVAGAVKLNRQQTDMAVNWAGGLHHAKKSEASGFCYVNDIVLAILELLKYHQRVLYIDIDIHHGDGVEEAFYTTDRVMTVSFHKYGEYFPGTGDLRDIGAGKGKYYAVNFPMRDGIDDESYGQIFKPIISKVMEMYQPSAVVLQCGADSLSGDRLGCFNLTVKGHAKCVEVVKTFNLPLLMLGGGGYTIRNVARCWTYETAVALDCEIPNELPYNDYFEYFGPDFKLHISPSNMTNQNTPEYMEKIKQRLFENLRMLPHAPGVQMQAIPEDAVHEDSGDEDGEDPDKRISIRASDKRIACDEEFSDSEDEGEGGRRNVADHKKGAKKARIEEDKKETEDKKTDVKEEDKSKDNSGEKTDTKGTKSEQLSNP

N9 [4] = test: Immunomodulatory activity in LPS-induced mouse N9 microglial cells assessed as increase in TREM2 expression at 0.1 to 5 uM incubated for 24 hrs by Western blot analysis; assay type: functional; conditions: dose 0.1-5 µM
Homo sapiens [5] = species on record: Homo sapiens; test: Selectivity ratio of IC50 for recombinant HDAC1 (unknown origin) to IC50 for recombinant HDAC6 (unknown origin)
Homo sapiens [6] = species on record: Homo sapiens; test: Selectivity ratio of IC50 for recombinant HDAC4 (unknown origin) to IC50 for recombinant HDAC6 (unknown origin)

Row | SMILES | EC50 [1] | Activity [2] | Activity (N9 [3]) | IC50 (Histone deacetylase 8) | IC50 (Histone deacetylase 7) | IC50 (Histone deacetylase 2) | Activity (N9 [4]) | Ratio IC50 (Homo sapiens [5]) | Ratio IC50 (Homo sapiens [6])
1 | COc1ccc2[nH]cc(CCN(Cc3ccc(C(=O)NO)cc3)C(=O)/C=C/c3ccc(O)c(OC)c3)c2c1 | 10.8 µM | Active | Active | 3590 nM | > 10000 nM | 2850 nM | Active | 25 | > 326
2 | COc1ccc2c(c1)c(CCNC(C)=O)cn2Cc1ccc(C(=O)NO)cc1 | 56.3 µM | Active | inactive | 838 nM | 1650 nM | 336 nM | inactive | 23 | 306
